The text below walks through data of patent US20220142995A1, “DUAL ATM AND DNA-PK INHIBITORS FOR USE IN ANTI-TUMOR THERAPY” (XRAD Therapeutics, Inc., priority 2019, published 2022).

For the experiment, the system named is TBK1. Put plainly: Immunoblot of TBK1 phosphorylation in HCT116 cells (p53 wild-type or p53-/-). The experiment is classed as cell-based. On the procedure:
Cell Culture. The MCF-7 human breast carcinoma cell line and HCT116 p53 wild-type and HCT116 p53−/− cell lines were obtained from ATCC. […]
Immunoblotting. […] One hour after IR, cells were lysed in RIPA buffer ([…], pH 8.0, 150 mM NaCl, 0.1% SDS, 0.5% sodium deoxycholate, 1% IGEPAL® CA-630 (Sigma, 18896) for 20 min at 4° C. in the presence of protease and phosphatase inhibitor cocktails (Roche, #04693159001 & #04906837001). Cell lysates were centrifuged at 13,200 g for 10 min at 4° C. and supernatants were analyzed for protein content using BCA assay (Pierce™ BCA Protein Assay Kit, cat #23227, ThermoFisher Waltham, Mass. 02451) and equal amounts of protein/lane were used for subsequent immunoblot analyses. Proteins were denatured by adding NuPAGE LSD Sample Buffer [4×] […]

Molecules are shown by their SMILES.

Consider `CC(C)NCCOc1ncc(-c2cc3c4c(cnc3cc2F)N(C)C(=O)C42CCC2)cc1NS(C)(=O)=O` [Compound 569, N-(5-(7′-Fluoro-3′-methyl-2′-oxo-2′,3′-dihydrospiro[cyclobutane-1,1′-pyrrolo[2,3-c]quinolin]-8′-yl)-2-(2-(isopropylamino)ethoxy)pyridin-3-yl)methanesulfonamide], for which the “induction of phosphorylation (activation) of TBK1” value (HCT116 p53 wild-type or p53-/- cells, 569 1 μM, ATMi + DNA-PKi 0.5 or 1 micromolar each, 0 or 10 Gy) is “more potent activator of TBK1 phosphorylation than either of the single target kinase inhibitors”. Also, the “dependence of TBK1 activation on p53 status” value (HCT116 p53 wild-type vs p53-negative cells, 1 μM) is listed as “independent of p53 status”.
